Source: patent publication US11180760B2, “Identification of molecular pathways and methods of use thereof for treating retinal neurodegeneration and other neurodegenerative disorders” (THE JOHNS HOPKINS UNIVERSITY, priority 2012, dated 2021)

Experiments:
RGCs = RGCs transfected with MAP3K12/MAP3K13 siRNA then plated in sunitinib or VX680, survival at 72 hours; assay type: cell-based, mice; conditions: RGCs transfected with 10 nM siRNA against MAP3K12 and MAP3K13 alone or in combination, 0, 12, 37, 111, 333, 1000 nM drug (FIG. 3F)
Experimental: RGCs were transfected with 10 nM siRNA against MAP3K12 and MAP3K13 alone or in combination and then plated in 0, 12, 37, 111, 333, and 1000 nM sunitinib (FIG. 3F on left) or VX680 (FIG. 3F on right). Survival at 72 hours is shown.

primary RGCs = assay: Primary RGC survival in neurotrophin-depleted media with kinase inhibitors (calcein AM)
Experimental: To determine the neuroprotective effects of the broad-spectrum kinase inhibitors, sunitinib and VX680, primary RGCs were plated in neurotrophin-depleted media and stained with calcein AM at 72 hours in the absence (vehicle) or presence of 1 μM sunitinib (FIG. 1, Panel A).
Retinas were isolated from postnatal 0-5-d mice and dissociated with papain. Microglia were immunodepleted with anti-CD11b conjugated Dynabeads (Life Technologies). The suspension of retinal cells was immunopanned on plates preconjugated with anti-Thy1.2 antibody (Serotec, MCA028) and goat antimouse IgM (Jackson Immunoresearch) at room temperature (RT). After washing, retinal ganglion cellS (RGCs) were released from the plate by a cell lifter, counted, and seeded at a density of 10,000 per well in 96-well plates in the media composed of Neurobasal (Life Technologies), B27, N2 supplement, Lglutamine, and penicillin/streptomycin. After a 72-h culture at 37° C., RGCs were stained with calceinAM (acetomethoxy derivate of calcein), ethidium homodimer, and Hoechst 33342. Images were taken from portions of each well with a Cellomics ArrayScan VTI HCS Reader (Thermo Fisher), and cell survival was quantified using the Cellomics Neuronal Profiling bioapplication. As indicated, RGC viability was alternatively measured by Cell-Titer-Glo (Promega) luminescence.

Cc1cc(Nc2cc(N3CCN(C)CC3)nc(Sc3ccc(NC(=O)C4CC4)cc3)n2)n[nH]1 [VX680]
cell viability, survival at 72 hours (RGCs): higher cell viability | survival of primary RGCs at higher doses (primary RGCs; at higher doses (FIG. 1B)): greater number of viable cells | survival of primary RGCs in response to increasing doses (primary RGCs; increasing doses (FIG. 1B)): neuroprotective
